The results in this text go back to ChEMBL document CHEMBL5500407, “Designing Chromane Derivatives as α2A-Adrenoceptor Selective Agonists via Conformation Constraint” (J Med Chem, 2024).

What is called EC50 is the concentration at which the effect is half-maximal. By Ki is commonly meant a measure of affinity in units of concentration, obtained from inhibition or displacement. The low end stands for higher affinity, the high end for lower affinity. As usually defined, the half-life is how long it takes for the measured level to halve.

For data set [1], the target named is T1, Alpha-2A adrenergic receptor (Homo sapiens, UniProt P08913).
T1 sequence (P08913 whole entry): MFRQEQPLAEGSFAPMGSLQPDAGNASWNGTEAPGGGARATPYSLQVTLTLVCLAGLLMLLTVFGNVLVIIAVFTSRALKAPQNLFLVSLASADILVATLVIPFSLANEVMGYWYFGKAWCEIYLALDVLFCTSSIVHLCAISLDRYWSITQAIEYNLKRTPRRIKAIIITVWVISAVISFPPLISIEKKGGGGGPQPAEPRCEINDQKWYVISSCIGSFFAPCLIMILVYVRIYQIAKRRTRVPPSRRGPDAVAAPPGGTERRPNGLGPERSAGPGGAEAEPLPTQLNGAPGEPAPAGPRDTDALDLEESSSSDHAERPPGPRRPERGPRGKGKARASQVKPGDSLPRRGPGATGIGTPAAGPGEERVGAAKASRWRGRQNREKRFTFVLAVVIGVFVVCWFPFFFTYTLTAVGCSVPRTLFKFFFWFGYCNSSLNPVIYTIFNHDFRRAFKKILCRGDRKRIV
Description: Agonist activity at alpha2A-adrenoceptor (unknown origin) expressed in CHO-alpha2-AR-PKAcatEGFP cells assessed as intracellular cAMP concentration by measuring PKA translocation after 15 mins incubation by PKA redistribution assay

Data set [2] has as its target T2, Alpha-1B adrenergic receptor (Homo sapiens, UniProt P35368).
T2 sequence (P35368 whole entry): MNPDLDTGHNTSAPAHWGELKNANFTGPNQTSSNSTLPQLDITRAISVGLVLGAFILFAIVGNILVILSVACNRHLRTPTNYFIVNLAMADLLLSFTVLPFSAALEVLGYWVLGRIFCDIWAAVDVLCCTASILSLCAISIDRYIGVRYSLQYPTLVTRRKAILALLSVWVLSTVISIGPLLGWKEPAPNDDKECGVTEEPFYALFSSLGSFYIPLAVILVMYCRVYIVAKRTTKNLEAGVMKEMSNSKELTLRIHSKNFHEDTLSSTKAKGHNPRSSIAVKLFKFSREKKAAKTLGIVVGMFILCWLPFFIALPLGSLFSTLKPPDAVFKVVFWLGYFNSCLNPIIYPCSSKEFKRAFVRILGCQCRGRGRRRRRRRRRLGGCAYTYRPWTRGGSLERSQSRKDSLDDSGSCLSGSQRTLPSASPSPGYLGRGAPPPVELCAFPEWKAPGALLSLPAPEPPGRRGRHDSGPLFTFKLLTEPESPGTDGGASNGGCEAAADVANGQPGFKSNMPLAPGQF
Nature of the data set: Binding affinity to human alpha1B-adrenoceptor.

In data set [3] the target is T3, Alpha-1D adrenergic receptor (Homo sapiens, UniProt P25100).
T3 sequence (P25100 whole entry): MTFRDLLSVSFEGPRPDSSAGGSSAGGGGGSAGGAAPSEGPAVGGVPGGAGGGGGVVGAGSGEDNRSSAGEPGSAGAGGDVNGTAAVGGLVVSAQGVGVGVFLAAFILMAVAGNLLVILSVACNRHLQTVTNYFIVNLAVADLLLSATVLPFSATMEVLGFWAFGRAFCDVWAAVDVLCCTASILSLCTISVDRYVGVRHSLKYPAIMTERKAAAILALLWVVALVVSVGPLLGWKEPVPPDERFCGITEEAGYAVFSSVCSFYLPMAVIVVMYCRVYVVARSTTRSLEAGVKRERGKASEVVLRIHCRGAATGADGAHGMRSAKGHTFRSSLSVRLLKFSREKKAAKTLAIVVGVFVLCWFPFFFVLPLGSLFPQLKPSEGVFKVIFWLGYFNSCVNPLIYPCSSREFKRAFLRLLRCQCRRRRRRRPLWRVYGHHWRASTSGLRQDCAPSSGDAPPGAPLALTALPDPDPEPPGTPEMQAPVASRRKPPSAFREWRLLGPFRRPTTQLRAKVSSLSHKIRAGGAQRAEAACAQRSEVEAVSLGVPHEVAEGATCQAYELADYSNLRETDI
Kind of data set: Binding affinity to human alpha1D-adrenoceptor.

In data set [4] the target is T1, Alpha-2A adrenergic receptor. The source holds these as a separate data set.
Description: Binding affinity to human alpha2A-adrenoceptor
Data set [5] concerns the target T4, Alpha-2B adrenergic receptor (Homo sapiens, UniProt P18089).
T4 sequence (P18089 whole entry): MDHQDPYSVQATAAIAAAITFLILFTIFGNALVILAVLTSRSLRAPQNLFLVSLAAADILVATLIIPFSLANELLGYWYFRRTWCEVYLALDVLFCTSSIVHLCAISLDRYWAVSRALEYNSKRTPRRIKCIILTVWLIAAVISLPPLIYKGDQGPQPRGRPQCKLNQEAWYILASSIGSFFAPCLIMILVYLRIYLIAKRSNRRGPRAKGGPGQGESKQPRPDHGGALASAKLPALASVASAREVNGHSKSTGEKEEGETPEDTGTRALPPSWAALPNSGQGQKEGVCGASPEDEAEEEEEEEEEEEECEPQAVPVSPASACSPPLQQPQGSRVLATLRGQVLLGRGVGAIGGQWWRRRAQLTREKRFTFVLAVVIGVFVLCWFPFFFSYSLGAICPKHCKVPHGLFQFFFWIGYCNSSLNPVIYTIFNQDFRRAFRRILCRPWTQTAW
Description: Binding affinity to human alpha2B-adrenoceptor

Data set [6] addresses T5, Alpha-2C adrenergic receptor (Homo sapiens, UniProt P18825).
T5 sequence (P18825 whole entry): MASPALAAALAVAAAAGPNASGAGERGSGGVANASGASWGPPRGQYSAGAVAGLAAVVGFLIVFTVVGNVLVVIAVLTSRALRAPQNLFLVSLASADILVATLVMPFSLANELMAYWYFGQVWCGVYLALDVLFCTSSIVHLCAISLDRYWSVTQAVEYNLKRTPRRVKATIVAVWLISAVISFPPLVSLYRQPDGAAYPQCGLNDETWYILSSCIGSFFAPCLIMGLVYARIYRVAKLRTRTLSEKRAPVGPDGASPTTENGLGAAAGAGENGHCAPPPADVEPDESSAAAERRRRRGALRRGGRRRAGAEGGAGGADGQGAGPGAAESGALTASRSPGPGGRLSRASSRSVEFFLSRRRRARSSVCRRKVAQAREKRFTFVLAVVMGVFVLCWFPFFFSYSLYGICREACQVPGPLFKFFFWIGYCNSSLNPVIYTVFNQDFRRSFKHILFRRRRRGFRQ
Description: Binding affinity to human alpha2C-adrenoceptor

Data set [7] concerns the target T6, Alpha-1A adrenergic receptor (Homo sapiens, UniProt P35348).
T6 sequence (P35348 whole entry): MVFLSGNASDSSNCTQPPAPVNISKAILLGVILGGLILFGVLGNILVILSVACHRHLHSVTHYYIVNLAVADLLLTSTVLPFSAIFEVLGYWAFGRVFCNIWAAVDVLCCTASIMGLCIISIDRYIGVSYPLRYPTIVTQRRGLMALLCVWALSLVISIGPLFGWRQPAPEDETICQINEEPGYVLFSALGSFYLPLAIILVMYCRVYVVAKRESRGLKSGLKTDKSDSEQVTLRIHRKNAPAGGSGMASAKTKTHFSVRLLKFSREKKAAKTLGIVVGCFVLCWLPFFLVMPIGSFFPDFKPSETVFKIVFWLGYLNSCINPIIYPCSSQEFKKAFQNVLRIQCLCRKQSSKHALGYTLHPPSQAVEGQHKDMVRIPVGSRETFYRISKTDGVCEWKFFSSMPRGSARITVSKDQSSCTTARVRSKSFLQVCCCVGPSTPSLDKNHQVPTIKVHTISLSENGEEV
Description: Binding affinity to human alpha1A-adrenoceptor

For data set [8], the target named is T4, Alpha-2B adrenergic receptor. Nature of the data set: Agonist activity at alpha2B-adrenoceptor (unknown origin) expressed in U2OS-EGFP-NFAT2-alpha2B-AR cells assessed as increase in intracellular calcium level measured after 15 mins incubation by Micro automated microscopy. Type of data set: functional, cell-based.
Data set [9] addresses T5, Alpha-2C adrenergic receptor. Kind of data set: Agonist activity at alpha2C-adrenoceptor (unknown origin) expressed in CHO-alpha2C-PKAcatEGFP cells assessed as increase in intracellular calcium level measured after 15 mins incubation by Micro automated microscopy. Type of data set: functional, cell-based.
The target of data set [10] is T6, Alpha-1A adrenergic receptor. Kind of data set: Agonist activity at alpha1A-adrenoceptor (unknown origin) expressed in HEK293T cells assessed as fluorescence intensity measured after 30 mins by IP-one homogeneous time-resolved fluorescence assay. It is filed as functional, cell-based.
Data set [11] in a line: Selectivity index, ratio of EC50 for alpha2A-adrenoceptor (unknown origin) to EC50 for alpha2B-adrenoceptor (unknown origin).
The nature of data set [12]: Selectivity index, ratio of EC50 for alpha2A-adrenoceptor (unknown origin) to EC50 for alpha2C-adrenoceptor (unknown origin).
The nature of data set [13]: Selectivity index, ratio of EC50 for alpha2A-adrenoceptor (unknown origin) to EC50 for alpha1A-adrenoceptor (unknown origin).
Data set [14] in a line: Metabolic stability in mouse liver microsomes assessed as elimination half life. It is filed as ADME, Microsome.
The nature of data set [15]: Metabolic stability in mouse liver microsomes assessed as intrinsic clearance. Type of data set: ADME, Microsome. The note with it: read-out: CLH. Background: Liver microsomes are a subcellular fraction often used to study metabolism.

SMILES strings stand for the structures.

For the compound `Cc1[nH]cnc1C1=CCOc2c(Cl)cccc21`, the EC50 in data set [1] is > 5000 nM.
`COc1cccc2c1CCOC2C1=NCCN1` (centres undefined) [TASIPIMIDINE]: the Ki in data set [2] is 525 nM; in [3], 3090 nM; in [4] it was 8.71 nM; in data set [5], > 1000 nM; in [6], > 1000 nM; in data set [7], 3090 nM.
As for `Cc1ccc2c(c1)C(c1c[nH]cn1)CCO2` (centres undefined), a half-maximal effect in data set [1] (EC50) was put at 2030 nM.
In turn, `Fc1cccc2c1OCCC2c1c[nH]cn1` (centres undefined) gave an EC50 in data set [1] of 56.9 nM.
With `Fc1cc(Br)c2c(c1)C(c1c[nH]cn1)=CCO2`, the EC50 stood at 83.4 nM in data set [8], 27.9 nM in [9], 48.4 nM in data set [10] and 1.14 nM in data set [1]. The Selectivity Index amounted to 73 in [11], 24 in data set [12] and 42 in [13].
As for `Brc1ccc2c(c1)OCC=C2c1c[nH]cn1`, the EC50 in data set [1] is > 5000 nM.
`Cc1cccc2c1OCCC2c1c[nH]cn1` (centres undefined): the EC50 in data set [8] was 45.8 nM; in data set [9], > 5000 nM; in data set [10], 2.42 nM; in data set [1] it was 2.09 nM. The results for the Selectivity Index in [11], in [12] and in [13] were 22, > 2000 and 1.2, respectively. For the same compound, the half-life in data set [14] turned out to be 36.8 min. Further, in data set [15], the microsomal CLint stood at 37.7 µL/min/mg.
Take `Cc1cccc2c1OCC=C2c1nc[nH]c1C`: the EC50 in data set [1] is > 5000 nM.
`Brc1ccc2c(c1)C(c1c[nH]cn1)CCO2` (centres undefined) registered an EC50 in [1] of 446 nM.
Compound `Clc1cc(Cl)c2c(c1)C(c1c[nH]cn1)=CCO2` came in with an EC50 in [1] of 4630 nM.
For the compound `NC1=N[C@]2(CCc3cccc(Cl)c3C2)OC1`, the Ki in data set [2] was 20 nM; in [3], 25.1 nM; in data set [4], 0.316 nM; in data set [5], 0.251 nM; in data set [6] it was 0.316 nM; in data set [7] it was 3.98 nM.
Consider `Fc1ccc2c(c1)OCC=C2c1cnc[nH]1`, for which the EC50 in data set [1] is > 5000 nM.
`C[C@H](c1c[nH]cn1)c1cccc2ccccc12`: the Ki is 15.5 nM in [4], 35.5 nM in data set [5], 17.8 nM in data set [6] and 447 nM in [7].
On to `Cc1ccc2c(c1)C(c1c[nH]cn1)=CCO2`, for which the EC50 in data set [1] stood at 896 nM.
For the compound `COc1ccc2c(c1)C(c1c[nH]cn1)=CCO2`, in data set [1], the EC50 is > 5000 nM.
With `Clc1cccc2c1OCCC2c1c[nH]cn1` (centres undefined), the EC50 amounted to 24.1 nM in data set [8], 35.8 nM in data set [9], 4.05 nM in data set [10] and 2.36 nM in [1]. Besides, the results for the Selectivity Index in [11], in [12] and in data set [13] were 10, 15 and 1.7, respectively.
For `Clc1cccc2c1OCC=C2c1cnc[nH]1`, a half-maximal effect in [1] (EC50) was put at 12.8 nM.
Same read-out and setting: the same measure for `Clc1ccc2c(c1)C(c1c[nH]cn1)CCO2` (centres undefined): 64.6 nM; for `Fc1cccc2c1OCC=C2c1c[nH]cn1`: 77.3 nM.
On the same count and under the same terms, the same measure for `Brc1ccc2c(c1)OCCC2c1c[nH]cn1` (centres undefined): 165 nM; for `Clc1cc(Br)cc2c1OCC=C2c1c[nH]cn1`: > 5000 nM.
In data set [4], `Clc1cccc2c(Nc3ccncc3)cccc12` showed a Ki of 8.32 nM.
In [1], `Cc1ccc2c(c1Br)OCC=C2c1c[nH]cn1` showed an EC50 of 104 nM.
The compound `Fc1ccc2c(c1)OCCC2c1cnc[nH]1` (centres undefined) showed an EC50 in data set [1] of 80.9 nM.
Same read-out and setting: the value for `Clc1ccc2c(c1)C(c1cnc[nH]1)=CCO2` was 899 nM.
The same measure, in the same setting: the value for `Brc1ccc2c(c1)C(c1c[nH]cn1)=CCO2` was > 5000 nM.
In [5], `C1=C(c2ccc3c(c2)CC3)CNCC1` showed an inhibitory constant (Ki) of 60.3 nM.
Take `Clc1cccc(Cl)c1N=C1NCCN1` [CLONIDINE]: the Ki in [2] is 7410 nM; in [3], 2570 nM.
On to `Cc1cccc2c1OCC=C2c1c[nH]cn1`, for which the EC50 turned out to be 100 nM in [8], 49.6 nM in data set [9], 29.8 nM in data set [10] and 2.11 nM in [1]. For the same compound, the Selectivity Index is 47 in data set [11], 24 in [12] and 14 in [13]. For the same compound, the half-life in data set [14] turned out to be 4.87 min. Further, the microsomal CLint in [15] was 284 µL/min/mg.
On to `N=C(N)NC(=O)Cc1c(Cl)cccc1Cl` [GUANFACINE], for which the Ki in [2] was 135000 nM; in data set [3] it was 11700 nM; in data set [7], 4680 nM.
